# Measurements reported in patent publication US20210128547A1, “AGGRESSIVE LIPID LOWERING THERAPY IN CORONARY ARTERY DISEASE” (priority 2018, published 2021).
# Tests used:
# patients with stable CAD = assay: Randomized open-label blinded-endpoint phase 4 trial, pitavastatin 4 mg/day vs 1 mg/day (Example 1); format: in vivo, human (Japanese patients)
# Method: This study was a prospective, multicenter, randomized, open-label, blinded-endpoint, physician-initiated phase 4 trial designed to investigate whether high-dose statin therapy could reduce CV events in patients with stable CAD as compared with low-dose statin therapy. We hypothesized that aggressive lipid lowering treatment with pitavastatin 4 mg/day would reduce the incidence of the composite endpoint comprised of CV death, non-fatal myocardial infarction (MI), non-fatal ischemic stroke, and unstable angina requiring emergency hospitalization. The control group received pitavastatin 1 mg/day.
# Men and women aged 20 to 80 years with clinically evident stable CAD and elevated LDL-C were eligible for this study. CAD was defined as 1) previous ACS, such as acute myocardial infarction or unstable angina; 2) a previous coronary revascularization procedure (PCI or coronary artery bypass grafting (“CABG”)); or 3) atherosclerotic CAD detected by coronary artery angiography with at least 75% stenosis in major epicardial coronary arteries (American Heart Association classification). (30) Patients with elevated LDL-C at entry were defined as (1) patients not receiving chronic lipid-lowering therapy with LDL-C≥140 mg/dL, (2) patients with LDL-C≥100 mg/dL and considered by the attending physician to need lipid-lowering therapy, or (3) patients being treated with lipid-lowering therapy.
# Exclusion criteria included (1) any planned coronary revascularization procedure, (2) active malignancy, (3) contraindication for pitavastatin (hypersensitivity to pitavastatin, severe liver disease or hepatic dysfunction, concurrent cyclosporine use, or suspected or confirmed pregnancy or current breastfeeding), (4) severe congestive heart failure (ejection fraction <30% or NYHA class ≥3), (5) current hemodialysis, (6) familial hypercholesterolemia, (7) current participation in another clinical trial, (8) current use of any prohibited drug (lipid-lowering drug other than pitavastatin) that could not be discontinued during the study, and (9) any other finding that would make the patient unsuitable for this study in the opinion of the investigators.
# Participants were recruited at 733 hospitals in Japan. During screening visits, informed consent and baseline medical history were obtained, and a clinical examination and laboratory testing were performed. Blood samples were collected to determine fasting lipid levels and the patient's standard clinical profile. After discontinuation of all previous lipid-lowering therapies, all eligible patients started receiving treatment with pitavastatin 1 mg/day on an open-label basis for at least 1 month (run-in period). At the end of the run-in period (week 0), those patients with LDL-C levels below 120 mg/dL, measured by a central laboratory using Friedwald's formula, were eligible for randomization. Patients with prior ACS or coronary revascularization could be randomized beyond 3 months after the index event. Randomization was not allowed for patients with poor adherence (less than 50%) for the study drug during the run-in period or for patients with the primary endpoint events during the run-in period.
# Patients were randomized in a 1:1 ratio to either pitavastatin 4 mg or pitavastatin 1 mg once daily. Randomized treatment assignment was stratified by 5 factors: 1) institution, 2) prior statin use, 3) age (<65 or ≤65), 4) diabetes, and 5) sex. Patients were to be followed for 3 years, and study visits were scheduled at 6 months for the first visit and every year thereafter. At each visit, information on vital signs, clinical endpoints, adverse events, and concurrent medication was collected. In addition, physical examinations and electrocardiograms were performed and blood specimens were collected at 6 months and every 12 months thereafter for lipid and other laboratory tests. […]
# [1] = 4 mg of pitavastatin; cited from earlier work
structure (smiles),measurement,setting,value
O=C(O)C[C@H](O)C[C@H](O)/C=C/c1c(C2CC2)nc2ccccc2c1-c1ccc(F)cc1 [pitavastatin],"incidence rates of individual CV events: death from any cause, myocardial infarction, and coronary revascularization","patients with stable CAD; 1 mg and 4 mg pitavastatin groups, FIG. 8",positive
same,LDL-C,"patients with stable CAD; patients converted from 1 mg dose to 4 mg dose of pitavastatin, FIG. 2",statistically significant reduction
same,HDL-C,"patients with stable CAD; patients converted from 1 mg dose to 4 mg dose of pitavastatin, FIG. 3",numerically superior increase
same,TG,"patients with stable CAD; patients converted from 1 mg dose to 4 mg dose of pitavastatin, FIG. 4",statistically significant reduction
same,hs-CGP,"patients with stable CAD; patients converted from 1 mg dose to 4 mg dose of pitavastatin, FIG. 5",statistically significant reduction
same,"primary clinical endpoint (composite of CV death, MI, ischemic stroke and UA)","patients with stable CAD; patients converted from 1 mg dose to 4 mg dose of pitavastatin, FIG. 6",statistically significant reduction
same,secondary clinical endpoint (primary endpoint+coronary revascularization),"patients with stable CAD; patients converted from 1 mg dose to 4 mg dose of pitavastatin, FIG. 7",statistically significant reduction
same,effect of LDL-C status (≥95 mg/dL or <95 mg/dL) on incidence rates for the primary endpoint,"patients with stable CAD; subgroup analysis, 1 mg vs 4 mg pitavastatin, FIG. 9",did not affect the results
same,reduction of LDL-C from baseline,[1],42.9%
